This is an account of results in PMC3622084 (Biochemistry, 2013).

As usually defined, the EC50 is the concentration giving half of the maximal effect. A low value points to an effect from little substance.

Experiment in all cases: Clark electrode O2 uptake, cytochrome c / ascorbate / TMPD
Common to all, as to assay type: biochemical

Experiment [1] has as its target T1, Rhodobacter sphaeroides cytochrome c oxidase (RsCcO) (Cereibacter sphaeroides, UniProt P33517+Q03736, Q03736:E101A).
Experiment [2] addresses Rhodobacter sphaeroides cytochrome c oxidase (RsCcO) (Cereibacter sphaeroides, UniProt P33517+Q03736). The conditions noted are these: read-out: K1/2; inhibition; 0.01% DDM, pH 7.4, 30 μM bovine cytochrome c.
Experiment [3] concerns the target T1, Rhodobacter sphaeroides cytochrome c oxidase (RsCcO). The source holds these as a separate data set.

T1 sequence (P33517 whole entry): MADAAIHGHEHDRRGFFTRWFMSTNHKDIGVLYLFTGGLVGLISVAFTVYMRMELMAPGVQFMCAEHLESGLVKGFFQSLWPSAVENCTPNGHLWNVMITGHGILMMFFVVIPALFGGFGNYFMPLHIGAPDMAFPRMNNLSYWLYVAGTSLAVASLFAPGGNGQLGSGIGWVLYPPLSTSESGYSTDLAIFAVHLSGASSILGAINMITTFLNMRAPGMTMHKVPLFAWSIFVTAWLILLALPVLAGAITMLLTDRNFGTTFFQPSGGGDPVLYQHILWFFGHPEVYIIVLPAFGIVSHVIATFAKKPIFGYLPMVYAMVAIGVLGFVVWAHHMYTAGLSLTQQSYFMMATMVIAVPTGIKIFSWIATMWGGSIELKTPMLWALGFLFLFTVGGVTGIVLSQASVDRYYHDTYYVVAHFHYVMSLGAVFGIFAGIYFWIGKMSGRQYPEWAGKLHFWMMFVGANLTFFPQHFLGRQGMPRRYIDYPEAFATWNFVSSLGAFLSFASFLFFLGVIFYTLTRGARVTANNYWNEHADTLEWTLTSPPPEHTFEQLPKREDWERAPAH
T1 sequence (Q03736 26-303 E101A limits assumed): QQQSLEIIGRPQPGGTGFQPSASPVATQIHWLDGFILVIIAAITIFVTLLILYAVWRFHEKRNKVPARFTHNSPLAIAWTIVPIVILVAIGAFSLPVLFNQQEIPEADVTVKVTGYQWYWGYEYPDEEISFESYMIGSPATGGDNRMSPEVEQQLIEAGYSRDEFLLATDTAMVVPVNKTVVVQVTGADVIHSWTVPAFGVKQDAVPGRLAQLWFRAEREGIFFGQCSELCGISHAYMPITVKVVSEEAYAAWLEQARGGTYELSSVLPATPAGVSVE
Sequence of Rhodobacter sphaeroides cytochrome c oxidase (RsCcO) (Cereibacter sphaeroides, UniProt P33517+Q03736) (P33517 whole entry): as the sequence (P33517 whole entry) above
Sequence of Rhodobacter sphaeroides cytochrome c oxidase (RsCcO) (Cereibacter sphaeroides, UniProt P33517+Q03736) (Q03736 26-303 limits assumed): as the sequence (Q03736 26-303 E101A limits assumed) above, with A76E counted along it

For the molecule `CC1=C(/C=C/C(C)=C/C=C/C(C)=C/C(=O)O)C(C)(C)CCC1` [retinoic acid], in experiment [1], the EC50 was around 8 µM. Still for that read-out and setting: the result for `C=CC1=C(C)/C(=C/c2[nH]c(Cc3[nH]c(/C=C4\NC(=O)C(C)=C4C=C)c(C)c3CCC(=O)O)c(CCC(=O)O)c2C)NC1=O` [bilirubin] reads around 50 µM; that for `CC(C)CCC[C@@H](C)[C@H]1CC[C@H]2[C@@H]3CC=C4C[C@@H](OC(=O)CCC(=O)O)CC[C@]4(C)[C@H]3CC[C@]12C` [cholesteryl hemisuccinate], around 80 µM.

Take CHOBIMALT: the IC50 in experiment [2] is around 200 µM.

With `CC(C)CCCC(C)CCCC(C)CCCC(C)CC(=O)O` (centres unmarked) [phytanic acid], the EC50 in experiment [1] was around 4 µM. Still for that read-out and setting: next, `C=CC1=C(C)c2cc3[nH]c(cc4nc(cc5[nH]c(cc1n2)c(C)c5CCC(=O)O)C(CCC(=O)O)=C4C)c(C)c3C=C` [protoporphyrin IX]: around 14 µM. `CCCCCCCC/C=C\CCCCCCCC(=O)OC[C@@H](O)COP(=O)([O-])OCC[N+](C)(C)C` [lyso-oleoyl phosphatidylcholine]: in experiment [3], the IC50 is around 17 µM.

Molecule `C[C@H](CCC(=O)O)[C@H]1CC[C@H]2[C@@H]3[C@H](O)C[C@@H]4C[C@H](O)CC[C@]4(C)[C@H]3C[C@H](O)[C@]12C` [cholate] gave an EC50 in experiment [1] of 200 µM.
